Data published in patent publication US8993765B2, “Tetrahydro-azacarboline MCH-1 antagonists, methods of making, and uses thereof” (Albany Molecular Research, Inc., priority 2010, dated 2015).

Experiments:
[1] = target: human MCH-1 receptor (Homo sapiens (Human), UniProt Q99705); assay: Binding Assay for Human Melanin-Concentrating Hormone (MCH-1) Receptor; details: membranes of CHO-K1 cells expressing human MCH-1 receptor; for Ki: radioligand displacement, Ki by Cheng Prusoff equation, read-out: MCH1 Ki
Protocol: Binding Assay for Human Melanin-Concentrating Hormone (MCH-1) Receptor
Evaluation of the affinity of compounds for the human MCH-1 receptor was accomplished using 4-(3,4,5-tritritiumbenzyloxy)-1-(1-(2-(pyrrolidin-1-yl)ethyl)-1H-indazol-5-yl)pyridin-2(1H)-one and membranes prepared from stable CHO-K1 cells expressing the human MCH-1 receptor obtained from Euroscreen (Batch 1138). Cell membrane homogenates (8.92 μg protein) were incubated for 60 min at 25° C. with […] of the [^3H]-labeled compound in the absence or presence of the test compound in 50 mM Tris-HCl buffer, pH 7.4. Nonspecific binding was determined in the presence of 50 μM 1-(5-(4-cyanophenyl)bicyclo[3.1.0]hexan-2-yl)-3-(4-fluoro-3-(trifluoromethyl)phenyl)-1-(3-(4-methylpiperazin-1-yl)propyl)urea. Following incubation, the samples were filtered rapidly under vacuum through Skatron 11731 filters, pre-soaked in 0.5% polyethylenimine, and washed with ice-cold 50 mM Tris-HCl buffer, pH 7.4, (wash setting 9,9,0) using a Skatron cell harvester. The filters were counted for radioactivity in a liquid scintillation counter (Tri-Carb 2100TR, Packard) using a scintillation cocktail (Ultima Gold MV, Perkin Elmer).
The results are expressed as a percent inhibition of the control radioligand specific binding. The IC50 value (concentration causing a half-maximal inhibition of control specific binding) and Hill coefficient (nH) were determined by non-linear regression analysis of the competition curve using Hill equation curve fitting. The inhibition constant (Ki) was calculated from the Cheng Prusoff equation: (Ki=IC50/(1+(L/KD)), where L=concentration of radioligand in the assay, and KD=affinity of the radioligand for the receptor.

Sequence of human MCH-1 receptor (Q99705 whole entry): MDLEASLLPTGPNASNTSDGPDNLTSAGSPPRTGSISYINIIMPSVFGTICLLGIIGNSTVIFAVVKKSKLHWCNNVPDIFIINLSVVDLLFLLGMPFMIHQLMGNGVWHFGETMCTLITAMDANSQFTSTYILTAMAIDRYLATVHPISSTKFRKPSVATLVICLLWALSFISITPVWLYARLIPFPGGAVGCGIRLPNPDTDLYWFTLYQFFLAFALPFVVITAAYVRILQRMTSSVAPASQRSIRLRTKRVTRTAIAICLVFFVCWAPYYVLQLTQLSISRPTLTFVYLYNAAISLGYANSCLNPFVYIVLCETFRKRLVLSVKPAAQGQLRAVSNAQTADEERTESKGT

melting point | Ki [1] [nM] | inhibition at 1 µM ([1]; @ 1 uM test compound, read-out: MCH1 percent inhibition of control radioligand specific binding) [%] | Compound
288 to 292 °C | 25 |  | CC1Cc2c(c3ccc(-n4ccc(OCc5ccc(F)cn5)cc4=O)nc3n2C)CN1.Cl (centres unmarked) [Example 14, 1-(7,9-Dimethyl-5,7,8,9-tetrahydro-6H-pyrido[3′,4′:4,5]pyrrolo[2,3-b]pyridin-2-yl)-4-((5-fluoropyridin-2-yl)methoxy)pyridin-2(1H)-one hydrochloride]
206 to 210 °C | 8.3 |  | Cl.Cn1c2c(c3ccc(-n4ccc(OCc5ccc(F)cc5F)cc4=O)nc31)CNCC2 [Example 16, 4-((2,4-Difluorophenyl)methoxy)-1-(9-methyl-5,7,8,9-tetrahydro-6H-pyrido[3′,4′:4,5]pyrrolo[2,3-b]pyridin-2-yl)pyridin-2(1H)-one hydrochloride]
245 to 255 °C |  | 72 | Cl.O=c1cc(OCc2ccc(F)cn2)ccn1-c1ccc2c(c1)nc1n2CCNC1 [Example 19, 4-((5-Fluoropyridin-2-yl)methoxy)-1-(1,2,3,4-tetrahydropyrazino[1,2-a]benzimidazol-8-yl)pyridin-2(1H)-one hydrochloride]
280 °C (dec.) | 21 |  | Cl.O=c1cc(OCc2ccccc2)ccn1-c1ccn2c3c(nc2c1)CCNC3 [Example 22, 4-(Benzyloxy)-1-(1,2,3,4-tetrahydropyrido[4′,3′:4,5]imidazo[1,2-a]pyridin-7-yl)pyridin-2(1H)-one hydrochloride]
